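Method: 48-hour compound exposure of cells in 96-well plates, five concentrations, linear interpolation of endpoints. TGI is the concentration that stops growth completely.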
Experiments:
Experiment in all cases: inhibition of tumour cell growth, NCI panel, 48 h
DLD-1 colon = tested on: DLD-1 colon
SR leukemia = tested on: SR leukemia
NCI-H226 lung = tested on: NCI-H226 lung
SW-620 colon = tested on: SW-620 colon
NCI-H23 lung = tested on: NCI-H23 lung
SK-MEL-2 melanoma = tested on: SK-MEL-2 melanoma
KM12 colon = tested on: KM12 colon
HT29 colon = tested on: HT29 colon
SN12C renal = tested on: SN12C renal
DMS 114 small cell lung = tested on: DMS 114 small cell lung
OVCAR-5 ovarian = tested on: OVCAR-5 ovarian
CCRF-CEM leukemia = tested on: CCRF-CEM leukemia
SK-MEL-5 melanoma = tested on: SK-MEL-5 melanoma
TK-10 renal = tested on: TK-10 renal
HCC-2998 colon = tested on: HCC-2998 colon
HOP-62 NSCLC = tested on: HOP-62 NSCLC
RXF 393 renal = tested on: RXF 393 renal
UO-31 renal = tested on: UO-31 renal
NCI-H460 lung = tested on: NCI-H460 lung
M14 melanoma = tested on: M14 melanoma
RPMI-8226 leukemia = tested on: RPMI-8226 leukemia
OVCAR-8 ovarian = tested on: OVCAR-8 ovarian
SF-539 CNS = tested on: SF-539 CNS
XF 498 CNS = tested on: XF 498 CNS
LXFL 529 NSCLC = tested on: LXFL 529 NSCLC
HL-60(TB) leukemia = tested on: HL-60(TB) leukemia
SNB-19 CNS = tested on: SNB-19 CNS
SF-268 CNS = tested on: SF-268 CNS
COLO 205 colon = tested on: COLO 205 colon
ACHN renal = tested on: ACHN renal
M19-MEL melanoma = tested on: M19-MEL melanoma
CAKI-1 renal = tested on: CAKI-1 renal
SK-MEL-28 melanoma = tested on: SK-MEL-28 melanoma
LOX IMVI melanoma = tested on: LOX IMVI melanoma
NCI-H522 lung = tested on: NCI-H522 lung
SK-OV-3 ovarian = tested on: SK-OV-3 ovarian
HCT-116 colon = tested on: HCT-116 colon
HOP-18 NSCLC = tested on: HOP-18 NSCLC
KM20L2 colon = tested on: KM20L2 colon
UACC-62 melanoma = tested on: UACC-62 melanoma
MALME-3M melanoma = tested on: MALME-3M melanoma
HCT-15 colon = tested on: HCT-15 colon
DMS 273 small cell lung = tested on: DMS 273 small cell lung
EKVX NSCLC = tested on: EKVX NSCLC
K-562 leukemia = tested on: K-562 leukemia
A549 NSCLC = tested on: A549 NSCLC
U251 CNS = tested on: U251 CNS
OVCAR-3 ovarian = tested on: OVCAR-3 ovarian
MOLT-4 leukemia = tested on: MOLT-4 leukemia
HOP-92 NSCLC = tested on: HOP-92 NSCLC
786-0 renal = tested on: 786-0 renal
UACC-257 melanoma = tested on: UACC-257 melanoma
SF-295 CNS = tested on: SF-295 CNS
SNB-75 CNS = tested on: SNB-75 CNS
SNB-78 CNS = tested on: SNB-78 CNS
OVCAR-4 ovarian = tested on: OVCAR-4 ovarian
PC-3 prostate = tested on: PC-3 prostate
T-47D breast = tested on: T-47D breast
MDA-MB-435 = tested on: MDA-MB-435
MCF7 breast = tested on: MCF7 breast
IGROV1 ovarian = tested on: IGROV1 ovarian
DU-145 prostate = tested on: DU-145 prostate
NCI/ADR-RES ovarian = tested on: NCI/ADR-RES ovarian
MDA-N = tested on: MDA-N
MDA-MB-231 breast = tested on: MDA-MB-231 breast
A498 renal = tested on: A498 renal
HS 578T breast = tested on: HS 578T breast

Measured: TGI

NC(=O)C1(c2ccccc2)Nc2ccccc2S1 (stereo unspecified)
not listed: HOP-92 NSCLC | 786-0 renal | UACC-257 melanoma | SF-295 CNS | SNB-75 CNS | SNB-78 CNS | OVCAR-4 ovarian | PC-3 prostate | T-47D breast | MDA-MB-435 | MCF7 breast | IGROV1 ovarian | DU-145 prostate | NCI/ADR-RES ovarian | MDA-N | MDA-MB-231 breast | A498 renal | HS 578T breast
> 100 µM: all other assays above

O=C(CC1(O)C(=O)Nc2c(Cl)cc(Cl)cc21)c1ccco1 (stereo unspecified)
71.4 µM: NCI-H226 lung
60 µM: DMS 114 small cell lung
67.8 µM: XF 498 CNS
47.5 µM: HL-60(TB) leukemia
60.4 µM: RPMI-8226 leukemia
68.4 µM: CCRF-CEM leukemia
59.1 µM: MOLT-4 leukemia
99.5 µM: SNB-78 CNS
40.8 µM: OVCAR-4 ovarian
57 µM: OVCAR-3 ovarian
not listed: SR leukemia | SF-539 CNS | M19-MEL melanoma | HCT-116 colon | UACC-62 melanoma | PC-3 prostate | T-47D breast | MDA-MB-435 | MCF7 breast | IGROV1 ovarian | DU-145 prostate | NCI/ADR-RES ovarian | MDA-N | MDA-MB-231 breast | A498 renal | HS 578T breast
> 100 µM: all other assays above

O=Cc1cc2c(s1)C(=O)c1sccc1C2=O
0.308 µM: DMS 273 small cell lung
0.771 µM: OVCAR-8 ovarian
1.77 µM: ACHN renal
0.598 µM: HCT-116 colon
2.9 µM: IGROV1 ovarian
1.56 µM: A549 NSCLC
0.155 µM: LOX IMVI melanoma
0.715 µM: HCT-15 colon
0.463 µM: OVCAR-3 ovarian
1.33 µM: MCF7 breast
0.663 µM: RXF 393 renal
4.38 µM: T-47D breast
0.664 µM: MALME-3M melanoma
9.49 µM: MOLT-4 leukemia
0.532 µM: UACC-62 melanoma
3.1 µM: HCC-2998 colon
7.88 µM: KM12 colon
3.69 µM: HT29 colon
0.322 µM: HOP-18 NSCLC
0.599 µM: OVCAR-4 ovarian
0.748 µM: U251 CNS
2 µM: OVCAR-5 ovarian
0.427 µM: HS 578T breast
0.526 µM: SF-268 CNS
3.53 µM: NCI-H226 lung
0.38 µM: LXFL 529 NSCLC
0.0334 µM: MDA-MB-435
4.16 µM: KM20L2 colon
0.255 µM: SK-MEL-5 melanoma
3.18 µM: EKVX NSCLC
0.314 µM: SF-295 CNS
2.02 µM: NCI-H522 lung
> 17 µM: K-562 leukemia
3.27 µM: HOP-62 NSCLC
2.69 µM: NCI-H460 lung
1.07 µM: DLD-1 colon
0.37 µM: SK-MEL-2 melanoma
2.82 µM: HOP-92 NSCLC
5.41 µM: HL-60(TB) leukemia
4.14 µM: TK-10 renal
0.319 µM: DU-145 prostate
0.657 µM: UACC-257 melanoma
5.45 µM: SR leukemia
5.48 µM: SK-OV-3 ovarian
0.0709 µM: M19-MEL melanoma
3.15 µM: CAKI-1 renal
0.372 µM: DMS 114 small cell lung
0.0932 µM: MDA-N
6.29 µM: PC-3 prostate
2.66 µM: A498 renal
0.861 µM: UO-31 renal
0.409 µM: NCI/ADR-RES ovarian
0.146 µM: M14 melanoma
5.15 µM: COLO 205 colon
0.338 µM: SNB-75 CNS
0.668 µM: SNB-19 CNS
0.688 µM: SN12C renal
2.42 µM: 786-0 renal
2.2 µM: MDA-MB-231 breast
2.54 µM: XF 498 CNS
0.399 µM: SF-539 CNS
0.441 µM: NCI-H23 lung
0.592 µM: SW-620 colon
0.334 µM: SK-MEL-28 melanoma

Cc1cc(O)c2c3c1C(=O)Oc1c(CO)c(O)c(C(=O)O)c(c1O3)C=NN=Cc1c3c(c(CO)c(O)c1C(=O)O)OC(=O)c1c(C)cc(O)c(c1O3)C=NN=C2
> 1 µM: SR leukemia | CCRF-CEM leukemia | RPMI-8226 leukemia | HL-60(TB) leukemia | K-562 leukemia | MOLT-4 leukemia
88.1 µM: OVCAR-3 ovarian
not listed: SK-MEL-2 melanoma | NCI-H522 lung | DMS 273 small cell lung | PC-3 prostate | T-47D breast | MDA-MB-435 | MCF7 breast | DU-145 prostate | NCI/ADR-RES ovarian | MDA-N | MDA-MB-231 breast | HS 578T breast
> 100 µM: all other assays above

CCC(=C(C#N)C#N)c1cc(OC)c(OC)c(OC)c1
44.5 µM: HL-60(TB) leukemia
35.6 µM: RPMI-8226 leukemia
not listed: 786-0 renal | UACC-257 melanoma | SF-295 CNS | SNB-75 CNS | SNB-78 CNS | PC-3 prostate | T-47D breast | MDA-MB-435 | MCF7 breast | DU-145 prostate | NCI/ADR-RES ovarian | MDA-N | MDA-MB-231 breast | A498 renal | HS 578T breast
> 100 µM: all other assays above

Source: PubChem BioAssay (NCI)
